How the values were obtained:
Assay type in all cases: cell-based
Details in all cases: hepg2, 24 h
HepG2 [1] = test: Cytotoxicity against human HepG2 cells assessed as NBD-PC phospholipid accumulation at 0.1 to 100 uM after 24 hrs by Hoechst 33342 normalization-based fluorescence assay
HepG2 [2] = test: Cytotoxicity against human HepG2 cells assessed as reduction in cell viability after 24 hrs by Neutral red uptake assay
HepG2 [3] = test: Cytotoxicity against human HepG2 cells assessed as reduction in cell viability at >/= 50 uM after 24 hrs by Neutral red uptake assay
HepG2 [4] = test: Cytotoxicity against human HepG2 cells assessed as disruption of membrane integrity at >= 50 uM after 24 hrs by LDH release assay
HepG2 [5] = test: Cytotoxicity against human HepG2 cells assessed as NBD-PC phospholipid accumulation after 24 hrs by Hoechst 33342 normalization-based fluorescence assay
HepG2 [6] = test: Cytotoxicity against human HepG2 cells at 100 uM after 24 hrs by Hoechst 33342 staining-based fluorescence assay
HepG2 [7] = test: Cytotoxicity against human HepG2 cells assessed as increase in lysosomal beta-hexosaminidase level at 50 to 100 uM after 24 hrs by MUG-based fluorescence assay
HepG2 [8] = test: Cytotoxicity against human HepG2 cells assessed as increase in lysosomal beta-hexosaminidase level at 20 uM after 24 hrs by MUG-based fluorescence assay
HepG2 [9] = test: Cytotoxicity against human HepG2 cells assessed as increase in lysosomal beta-hexosaminidase level at 35 uM after 24 hrs by MUG-based fluorescence assay
HepG2 [10] = test: Cytotoxicity against human HepG2 cells assessed as disruption of membrane integrity at 20 uM after 24 hrs by LDH release assay
HepG2 [11] = test: Cytotoxicity against human HepG2 cells assessed as disruption of membrane integrity at 35 uM after 24 hrs by LDH release assay
HepG2 [12] = test: Cytotoxicity against human HepG2 cells assessed as formation of lysosomal inclusion bodies at 50 uM after 24 hrs by transmission electron microscopy
HepG2 [13] = test: Cytotoxicity against human HepG2 cells assessed as reduction in cell viability at 0.1 to 100 uM after 24 hrs by Neutral red uptake assay
HepG2 [14] = test: Cytotoxicity against human HepG2 cells assessed as disruption of membrane integrity up to 100 uM after 24 hrs by LDH release assay
HepG2 [15] = test: Cytotoxicity against human HepG2 cells assessed as increase in lysosomal beta-hexosaminidase level at 10 to 100 uM after 24 hrs by MUG-based fluorescence assay
HepG2 [16] = test: Cytotoxicity against human HepG2 cells assessed as reduction in cell viability at 100 uM after 24 hrs by Neutral red uptake assay

Structure (SMILES)	Activity (HepG2 [1])	Activity (HepG2 [5])	Activity (HepG2 [6])	Activity (HepG2 [12])	Activity (HepG2 [13])	Activity (HepG2 [14])	also measured
Clc1ccccc1CNC1CN2CCC1CC2 (stereo unspecified)	Non-toxic						
Cc1cccc(C)c1C(OCCN(C)C)C1CCCCC1 (stereo unspecified)		Dose-dependent effect	Toxic	Toxic			Activity (HepG2 [2]): Dose-dependent effect; Activity (HepG2 [3]): Toxic; Activity (HepG2 [4]): Toxic; Activity (HepG2 [7]): Toxic; Activity (HepG2 [8]): Toxic; Activity (HepG2 [9]): Toxic; Activity (HepG2 [10]): Non-toxic; Activity (HepG2 [11]): Non-toxic
CCN(CC)CCNC1=Nc2ccccc2CCC1	Non-toxic			Toxic			Activity (HepG2 [7]): Toxic
OC(CN1CCOCC1)c1csc2ccccc12 (stereo unspecified)	Non-toxic				Non-toxic	Non-toxic	
CCOc1ccc(Br)cc1CNCC1CCNCC1		Dose-dependent effect	Toxic	Toxic			Activity (HepG2 [2]): Dose-dependent effect; Activity (HepG2 [3]): Toxic; Activity (HepG2 [4]): Toxic; Activity (HepG2 [15]): Toxic
CCN(CC)CCNCc1c(OC)ccc2ccccc12		Dose-dependent effect	Non-toxic	Toxic			Activity (HepG2 [16]): Non-toxic; Activity (HepG2 [15]): Toxic
COc1ccc(CNCC(O)c2nnn(C)n2)cc1OC (stereo unspecified)	Toxic			Toxic	Non-toxic	Non-toxic	
c1cc(C[N+]23CN4CN(CN(C4)C2)C3)cs1	Non-toxic				Non-toxic	Non-toxic	
C1CN(CCN2CCOCC2)CCO1	Non-toxic				Non-toxic	Non-toxic	
CC1=NN(C(=O)c2nn(C)cc2[N+](=O)[O-])C(O)(C(F)(F)F)C1 (stereo unspecified)	Non-toxic				Non-toxic	Non-toxic	
CCCCc1oc2ccccc2c1C(=O)c1cc(I)c(OCCN(CC)CC)c(I)c1 [AMIODARONE]		Dose-dependent effect	Toxic				Activity (HepG2 [2]): Dose-dependent effect; Activity (HepG2 [4]): Toxic; Activity (HepG2 [7]): Toxic
CN/C(=N/CCSCc1nc[nH]c1C)NC#N [CIMETIDINE]	Non-toxic				Non-toxic	Non-toxic	

Source: ChEMBL document CHEMBL3407411, “Evaluating the risk of phospholipidosis using a new multidisciplinary pipeline approach” (Eur J Med Chem, 2015)
